The source of these data is US11761894B2, “Silicon-rhodamine fluorescent probe containing hydrophobic group and use thereof” (AJOU UNIVERSITY INDUSTRY—ACADEMIC COOPERATION FOUNDATION, priority 2019, dated 2023).

In one series the test system is Hep3B cells. The series is described as follows: Co-staining with Hoechst and Lysotracker Red in Hep3B cells. Format: cell-based, human. The conditions noted are these: 1 μM, 1 h. As to the method:
Liver cancer Hep3B cells were incubated with Hoechst (0.01 μg/ml), Lysotracker red (1 μM), and SiR-Mito 8 (1 μM) for 1 h. After washing 3 times with fresh media, fluorescence live cell images were acquired with a LEICA DMi8 microscope (Left). […] Scale bar: 50 μm.
To verify the mitochondrial specificity of the SiR-Mito 8 probe, Hep3B human cancer cells were co-stained with a nuclear and a lysosomal tracer, in addition to SiR-Mito 8.
To this end, 6.0×10^4 human HCC cell line Hep3B cells were seeded on confocal dish and incubated for 2 days. After 2 days, Hep3B cells were incubated with Hoechst, 1 μM Lysotracker Red, and 1 μM SiR-Mito 8 contained media for 1 h. After the incubation, Hep3B cells were washed with cell culture media for three times and observed with inverted fluorescence microscope (DMi8, LEICA).

In series [1] the test system is Mitochondria-YFP Chang liver cells. The series is described as follows: Mitochondrial targeting efficiency in Chang liver cells expressing mitochondrial YFP. Format: cell-based, human. Conditions: 1 μM, 60 min. As to the method:
(a) HeLa and Hep3B cells were incubated with MitoTracker Green (0.5 μM), and SiR-Mito 8 (1 μM) for 1 h. After washing 3 times with fresh media, fluorescent live cell images were acquired with LEICA DMi8 microscope. (MitoTracker green: FITC channel, SiR-Mito 8: Cy 5 channel, Scale bar: 15 μm); (b) Chang liver cells expressing mitochondrial YFP were incubated with SiR-Mito 8 (1 μM) for 1 h. After washing 3 times with fresh media, fluorescent live cell images were acquired with LEICA DMi8 microscope. (Mitochondrial-YFP: Rhodamine channel, Scale bar: 15 μm).
The mitochondrial targeting efficiency of SiR-Mito 8 in live cells was examined by high-resolution imaging.
To this end, Overexpression plasmid for Mitochondria-YFP was obtained from Catholic University (Seoul, Korea) and transfected into Chang liver cells. Stable clones expressing Mitochondria-YFP was selected using 0.25 mg/ml G418. Next, Mitochondria-YFP infected Chang liver cells were cultured in Dulbecco's modified eagle media (DMEM, GIBCO) containing 10% fetal bovine serum (FBS, GIBCO) and 1% penicillin (GIBCO) at 37° C. in a humidified incubator with 5% CO2. For the fluorescence microscope imaging, cells were harvested using TrypLE™ Express (GIBCO) and resuspended in fresh culture medium. […] Cells were washed three times with 1×PBS and observed with inverted fluorescence microscope (DMi8, LEICA).

The subject of series [2] is mitochondria in HeLa cells. The series is described as follows: Colocalization test of SiR-Mito probes with MitoTracker green in HeLa cells. In kind it is cell-based, human. Conditions: 1 μM probe, 1 h. As to the method:
HeLa cells were incubated with cell culture media containing 1 μM SiR-Mito probe, and 0.5 μM MitoTracker green. After 1 h, HeLa cells were washed three times with 1×PBS for and observed with a LEICA DMi8 fluorescent microscope. Each experiment was observed using 512-542 nm emitter for FITC channel (for MitoTracker Green), and 663-738 nm exciter, 545-625 nm emitter for Cy5 channel (for SiR-Mito probes). Scale bar: 50 μm.
HeLa human cervical cancer cells were cultured in Dulbecco's modified eagle media (DMEM, GIBCO) containing 10% fetal bovine serum (FBS, GIBCO) and 1% penicillin (GIBCO) at 37° C. in a humidified incubator with 5% CO2. For the fluorescence microscope imaging, cells were harvested using TrypLE™ Express (GIBCO) and resuspended in fresh culture medium. Harvested cells with a density of 4.0×10^3 cells/well were seeded on a HeLa 96 black well plate (CORNING) and incubated for 24 h. Cells were incubated with SiR-Mito probes (1 μM) and MitoTracker Green (0.5 μM) for 60 min. After the incubation, cells were washed with 1×PBS for three times and observed with inverted fluorescence microscope (DMi8, LEICA). Each experiment was observed using a 325-375 nm exciter, 435-485 nm emitter for DAPI channel, 460-500 nm exciter, 512-542 nm emitter for FITC channel, 541-551 nm exciter, 565-605 nm emitter for Rhodamine channel, and 663-738 nm exciter, 545-625 nm emitter for Cy5 channel.
To determine the effect of probe hydrophobicity on the efficiency of targeting to mitochondria, the Pearson coefficient for colocalization of SiR-Mito probes and MitoTracker green, a commercial fluorescent mitochondrial bioprobe, was measured (FIG. 1). For the colocalization test, human cervical cancer HeLa cells were seeded on 96-well plates and incubated for 1 h with 1 μM of each different SiR-Mito probe and 0.5 μM MitoTracker green, washed briefly with 1×PBS, and imaged with a LEICA DMi8 fluorescent microscope using the 40× objective.

In series [3] the test system is HeLa, Hep3B, HepG2 and Raw 264.7 cells. The series is described as follows: Cytotoxicity test (mitochondrial respiration viability assay, CellTiter 96 Aqueous One). The conditions noted are these: up to the 24 hr time point, moderate dose (less than 1 μM). Format: cell-based, human; mouse. As to the method: HeLa, Hep3B, HepG2 and Raw 264.7 cells were incubated with SiR-Mito 8, concentration range from 0.25 μM to 10 μM, for 1, 4, 12, and 24 h. Viability of the cells was normalized by DMSO control.
In order to use SiR-Mito 8 as a potential NIR fluorescent tracer for mitochondrial staining, cytotoxicity of the probes was evaluated. HeLa, Hep3B, HepG2 and Raw 264.7 cells were incubated with SiR-Mito 8 at various concentrations (from 0.25 to 10.0 μM) and cytotoxicity was measured by a mitochondrial respiration viability assay.
Specifically, HeLa human cervical cancer cells, Hep3B and HepG2 human hepatocellular carcinoma cells, and Raw264.7 mouse macrophage cells were seeded into 96-well cell culture plates per well and allowed to adhere to the plates overnight. The cells were incubated with cell culture media containing each concentration of SiR-Mito 8 (0.25 μM to 10 μM) for 1, 4, 12 or 24 h. After incubation, CellTiter 96® Aqueous One Solution Cell Proliferation Assay (Promega) was added into each well. After 2 h, 490 nm absorption was measured with Cytation 3 microplate reader (BioTek). Cytotoxicity of SiR-Mito 8 was tested in triplicate in a single experiment, with each experiment being repeated at least three times.

Entries after “also recorded” stand apart in the source; their conditions may differ.

For “N-(10-(5-((cyclooctylmethyl) carbamoyl)-2-methylphenyl)-7-(dimethylamino)-5,5-dimethyldibenzo[b,e]silin-3(5H)-ylidene)-N-methylmethanaminium [SiR-Mito 8]”, in the series on Hep3B cells, the “Mitochondrial specificity versus lysosome (Lysotracker Red co-staining)” value is listed as “high mitochondrial specificity; also recorded: did not localize to other organelle such as lysosome”. Further, the Mitochondrial targeting efficiency entry in series [1] is “high mitochondrial targeting efficiency”. In series [2] (0.5 μM MitoTracker green), the “Mitochondria Targeting (Pearson coefficient for colocalization with MitoTracker green)” value is reported as “*** (*** 0.9 ≤ R)” and the “Pearson coefficient for colocalization with MitoTracker green” value was “highest”. Besides, the “Intracellular fluorescence (SiR channel)” value in series [2] is reported as “strongest”. Also, the Cytotoxicity result in series [3] is “no acute cytotoxicity”.
